Test results from PMC5792912 (Royal Society Open Science, 2018).

Legend:
[1] = target: T1, COMT in HLC (Homo sapiens, UniProt P21964); assay: Methylation kinetics in pooled human liver cytosol (HLC); assay type: in vitro ADME; settings: identified by NMR
T1 construct: Pooled human liver cytosol (HLC) from seven male donors; tissue Research Institute for Liver Diseases (Shanghai, China) Lot; QROX; host or cells: pooled human liver cytosol, seven male donors
T1 sequence (P21964 1-221 isoform P21964-2): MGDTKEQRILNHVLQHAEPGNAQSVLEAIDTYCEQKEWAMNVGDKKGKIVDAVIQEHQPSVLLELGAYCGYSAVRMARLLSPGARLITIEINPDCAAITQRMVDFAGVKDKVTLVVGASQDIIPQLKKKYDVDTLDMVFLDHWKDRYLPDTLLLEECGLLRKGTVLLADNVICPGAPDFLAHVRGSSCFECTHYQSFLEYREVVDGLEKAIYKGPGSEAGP

[2] = target: T2, recombinant human soluble COMT (S-COMT) (Homo sapiens, UniProt P21964); assay: Methylation kinetics with recombinant human soluble COMT; assay type: in vitro ADME; settings: for Clint: intrinsic clearance (Vmax/Km)
T2 construct: made in house
T2 sequence (P21964 1-221 isoform P21964-2): T1 sequence (P21964 1-221 isoform P21964-2)
Method: (§1) Reaction mixtures were pre-incubated at 37°C for 5 min and initiated by the addition of SAM to a final concentration of 0.4 mM. The samples were incubated for a certain period of time and the reaction was terminated by the addition of 200 µl ice-cold acetonitrile and then centrifuged at 20 000g, 4°C, for 20 min. Control incubations were performed either without human liver cytosol, or without SAM or without substrate. The supernatants were subjected to ultra-fast liquid chromatography (UFLC) coupled with a diode array detector (DAD) and an electrospray ionization (ESI) mass spectrometer (MS) analyzer.
(§2) 7,8-DHCs and their methylated conjugates were analysed by a UFLC spectrometry system (Shimadzu, Kyoto, Japan), equipped with two LC-20AD pumps, a DGU-20A3 vacuum degasser, a SIL-20ACHT auto-sampler, a CTO-20AC column oven, an SPD-M 20A DAD, a CBM-20A communications bus module, a mass detector (2010EV) with an ESI interface and a computer equipped with UFLC-MS SOLUTION v. 3.41 software. A Shimadzu ODS (75.0 × 2.0 mm, 3 µm) analytical column was used to separate 7,8-DHCs and their methylated conjugates. Column temperature was kept at 40°C. […] The methylation samples were stable over 72 h at 4°C. 7,8-DHC methylation was quantified by the standard curves of the methylated conjugates at the detector wavelength of 325 nm, which were linear from 0.01 to 10 µM (the correlation coefficient was 0.999).
(§3) For estimating kinetic parameters, 7,8-DHCs (0.1–40 µM) were incubated with pooled HLC and S-COMT. 7,8-DHCs (0.1–40 µM) were incubated with HLC or S-COMT for 5 min, using a microsomal protein concentration of 0.5 mg ml^−1 or 0.002 mg ml^−1 for HLC and S-COMT, respectively. Kinetic constants for 7,8-DHCs methylation by HLC and S-COMT were obtained by fitting the Michaelis–Menten kinetics equation (3.1) to experimental data.
(§4) For the Michaelis–Menten kinetic model, 3.1 v=Vmax×[S]/Km+[S], where v is the rate of reaction, [S] is the substrate concentration, Vmax is the maximum velocity estimate and Km is the apparent affinity constant.
(§5) All incubations were performed in duplicate. Kinetic constants were obtained using GraphPad PRISM 6 (GraphPad Software, Inc. La Jolla, CA) software.

[3] = target: T1, COMT in HLC; assay: Methylation kinetics in pooled human liver cytosol (HLC); assay type: in vitro ADME; settings: for Clint: intrinsic clearance (Vmax/Km); for COMT substrate in human liver cytosol: human liver cytosol with SAM
Method: as §1, §2, §3, §4, §5

[4] = after administration in rats; cited from earlier work
[5] = system: human hepatocytes; settings: cited from earlier work

Compound | methylated metabolite identified [1] | Clint [2] [µL/min/mg] | Clint ([3]; HLC) [µL/min/mg] | COMT substrate in human liver cytosol [3] | half-life [4] [min] | methyl-derived metabolites [5] [%] | Vmax ([2]; best-fit value ± s.e.) [nmol/min/mg] | Vmax ([3]; HLC, best-fit value ± s.e.) [nmol/min/mg]
O=C(O)Cc1cc(=O)oc2c(O)c(O)ccc12 [4-ADPN, 4-acetic acid daphnetin] | 8-O-methylated 7,8-DHC | 31.1 | 0.017 | COMT substrates | – | – | – | –
Cc1cc(=O)oc2c(O)c(O)ccc12 [4-MDPN, 4-methyl daphnetin] | 8-O-methylated 7,8-DHC | 154.8 | 0.70 | COMT substrates | – | – | – | –
O=c1cc(-c2ccccc2)c2ccc(O)c(O)c2o1 [4-PDPN, 4-phenyl daphnetin] | 8-O-methylated 7,8-DHC | 424.0 | 1.91 | COMT substrates | – | – | – | –
O=c1ccc2ccc(O)c(O)c2o1 [daphnetin, 7,8-dihydroxycoumarin] | 8-O-methylated 7,8-DHC | 169.5 | 0.52 | COMT substrates | 15 | 37.3 | 81.4 ± 2.4 | 0.11 ± 0.0034
